In the supplement of paper PMC10307832 one finds relative viability data, which are given here for 1 cell line.

Assay in all cases: relative viability (nuclei count vs DMSO), 5 days (fraction); higher = more cells survive
Compound in assay [1]: CC1(COc2ccc3c(c2)ncn3-c2ccc3cccc(N4CCC(N)CC4)c3n2)COC1 [Crenolanib] + CC(=O)c1c(C)c2cnc(Nc3ccc(N4CCNCC4)cn3)nc2n(C2CCCC2)c1=O [Palbociclib] (partner 0.5 µM)
The procedure, abridged:
(§1)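 Dosing by pin tool came one day after lung cancer cell lines were seeded in 1536-well plates, using either one drug or a fixed anchor-drug dose plus five library-drug doses (not always all listed) in √10 steps. After 5 days, nuclei were counted on 4× images. Relative viability is treated-well nuclei count divided by vehicle-well nuclei count, and values are medians of duplicate plates.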

Compound in assay [2]: CC1(COc2ccc3c(c2)ncn3-c2ccc3cccc(N4CCC(N)CC4)c3n2)COC1 [Crenolanib] + CCNC(=O)c1noc(-c2cc(C(C)C)c(O)cc2O)c1-c1ccc(CN2CCOCC2)cc1 [Luminespib] (partner 0.01 µM)
The procedure, abridged:
as §1

Compound in assay [3]: CC1(COc2ccc3c(c2)ncn3-c2ccc3cccc(N4CCC(N)CC4)c3n2)COC1 [Crenolanib] + Cc1nc(NC(=O)N2CCC[C@H]2C(N)=O)sc1-c1ccnc(C(C)(C)C(F)(F)F)c1 [Alpelisib] (partner 2 µM)
The gist of the method: as §1

Compound in assay [4]: CC1(COc2ccc3c(c2)ncn3-c2ccc3cccc(N4CCC(N)CC4)c3n2)COC1 [Crenolanib] + N=C(N)NC(=N)NCCc1ccccc1 [Phenformin] (partner 250 µM)
The procedure, abridged: as §1

Regarding UMC-11, the relative viability in assay [1] (first compound 0.01 µM) was found to be 0.391; in assay [1] (first compound 0.03162 µM) it was 0.334; in assay [1] (first compound 0.1 µM) it was 0.349; in assay [1] (first compound 0.3162 µM) it was 0.286; in assay [1] (first compound 1 µM), 0.352; in assay [2] (first compound 0.01 µM), 1.06. Also, the relative viability in assay [2] (first compound 0.03162 µM) was 1.02; in assay [2] (first compound 0.1 µM) it was 1.02; in assay [2] (first compound 0.3162 µM) it was 1.11; in assay [2] (first compound 1 µM), 1.07; in assay [3] (first compound 0.01 µM), 1.06; in assay [3] (first compound 0.03162 µM), 0.958. Also, the relative viability amounted to 0.956 in assay [3] (first compound 0.1 µM); 1.14 in assay [3] (first compound 0.3162 µM); 0.989 in assay [3] (first compound 1 µM); 0.346 in assay [4] (first compound 0.01 µM); 0.323 in assay [4] (first compound 0.03162 µM); 0.325 in assay [4] (first compound 0.1 µM). The relative viability in assay [4] (first compound 0.3162 µM) worked out at 0.329; in assay [4] (first compound 1 µM), 0.269.
